Reference: ChEMBL document CHEMBL1201862, “PubChem BioAssay data set” (2004)
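The compound was tested at five concentrations on cells cultured in 96-well plates, with a 48-hour exposure period. GI50 marks 50% less growth.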 Active and inactive are the calls of the source. Cut-off read from the data, not from the text of the source: active = GI50 up to about 1.1 µM and inactive = higher. Square brackets hold non-standard residues; d marks the D form. Peptide text beside a SMILES is read from it. * marks the point of attachment. Tyr(3-Br) = N[C@@H](Cc1ccc(O)c(Br)c1)C(=O)O; Boc = CC(C)(C)OC(=O)*

Experiments:
Assay in all cases: DTP human tumour cell line panel, 48 h
MDA-N = tested on: MDA-N
786-0 = tested on: 786-0
HOP-92 = tested on: HOP-92
RXF 393 = tested on: RXF 393
Malme-3M = tested on: Malme-3M
M14 = tested on: M14
T47D = tested on: T47D
UACC-62 = tested on: UACC-62
SF-268 = tested on: SF-268
DU-145 = tested on: DU-145
NCI-H226 = tested on: NCI-H226
HT-29 = tested on: HT-29
CAKI-1 = tested on: CAKI-1
Hs-578T = tested on: Hs-578T
KM12 = tested on: KM12
NCI/ADR-RES = tested on: NCI/ADR-RES
MCF7 = tested on: MCF7
SK-MEL-5 = tested on: SK-MEL-5
HCT-116 = tested on: HCT-116
UO-31 = tested on: UO-31

For `CC(C)(O)/C=C\P(C)(=O)c1ccccc1` (centres undefined), the GI50 (MDA-N) was > 100 µM (inactive), the GI50 (786-0) was > 100 µM (inactive) and the GI50 (HOP-92) was > 100 µM (inactive). For the same compound, the GI50 (RXF 393) was > 100 µM (inactive), the GI50 (Malme-3M) was > 100 µM (inactive) and the GI50 (M14) was > 100 µM (inactive). The GI50 (T47D) was > 100 µM (inactive), the GI50 (UACC-62) was > 100 µM (inactive) and the GI50 (SF-268) was > 100 µM (inactive). For the same compound, the GI50 (DU-145) was > 100 µM (inactive), the GI50 (NCI-H226) was > 100 µM (inactive) and the GI50 (HT-29) was > 100 µM (inactive). The GI50 (CAKI-1) was > 100 µM (inactive), the GI50 (Hs-578T) was > 100 µM (inactive) and the GI50 (KM12) was > 100 µM (inactive). The GI50 (NCI/ADR-RES) was > 100 µM (inactive), the GI50 (MCF7) was > 100 µM (inactive) and the GI50 (SK-MEL-5) was > 100 µM (inactive). The GI50 (HCT-116) was > 100 µM (inactive).

`C[C@]12c3c4cc(NC(=O)C(=O)NCc5ccc(-c6ccccn6)nc5)cc3Oc3cc(NC(=O)C(=O)NCc5ccc(-c6ccccn6)nc5)cc(c31)OC1C=C(NC(=O)C(=O)NCc3ccc(-c5ccccn5)nc3)C=C(O4)C12` (some centres undefined) was tested, and the GI50 (MDA-N) was 34 µM (inactive), the GI50 (786-0) was 18.1 µM (inactive) and the GI50 (RXF 393) was > 100 µM (inactive). For the same compound, the GI50 (M14) was 98.2 µM (inactive), the GI50 (T47D) was 26.7 µM (inactive) and the GI50 (UACC-62) was 24.5 µM (inactive). The GI50 (SF-268) was 16.8 µM (inactive), the GI50 (DU-145) was 18.8 µM (inactive) and the GI50 (NCI-H226) was 29.6 µM (inactive). For the same compound, the GI50 (HT-29) was 12.1 µM (inactive), the GI50 (CAKI-1) was 21.2 µM (inactive) and the GI50 (Hs-578T) was > 100 µM (inactive). For the same compound, the GI50 (KM12) was 16.3 µM (inactive), the GI50 (NCI/ADR-RES) was 49.7 µM (inactive) and the GI50 (UO-31) was 22.3 µM (inactive). The GI50 (MCF7) was 33.7 µM (inactive), the GI50 (SK-MEL-5) was 35.3 µM (inactive) and the GI50 (HCT-116) was 29.2 µM (inactive).

`O=C(O)c1ccc(Nc2nc3ccccc3nc2C(=O)O)cc1` was tested, and the GI50 (MDA-N) was > 100 µM (inactive), the GI50 (786-0) was > 100 µM (inactive) and the GI50 (HOP-92) was > 100 µM (inactive). For the same compound, the GI50 (Malme-3M) was > 100 µM (inactive), the GI50 (M14) was > 100 µM (inactive) and the GI50 (T47D) was > 100 µM (inactive). The GI50 (UACC-62) was > 100 µM (inactive), the GI50 (SF-268) was > 100 µM (inactive) and the GI50 (DU-145) was > 100 µM (inactive). The GI50 (HT-29) was > 100 µM (inactive), the GI50 (CAKI-1) was > 100 µM (inactive) and the GI50 (Hs-578T) was > 100 µM (inactive). For the same compound, the GI50 (KM12) was > 100 µM (inactive), the GI50 (NCI/ADR-RES) was > 100 µM (inactive) and the GI50 (UO-31) was > 100 µM (inactive). For the same compound, the GI50 (MCF7) was > 100 µM (inactive), the GI50 (SK-MEL-5) was > 100 µM (inactive) and the GI50 (HCT-116) was > 100 µM (inactive).

In the case of `[N-]=[N+]=NC1=C(c2ccccc2)C(=O)c2cccc3cccc1c23`, the GI50 (MDA-N) was 12.2 µM (inactive), the GI50 (786-0) was 15.2 µM (inactive) and the GI50 (HOP-92) was 17.7 µM (inactive). For the same compound, the GI50 (RXF 393) was 19.7 µM (inactive), the GI50 (Malme-3M) was 18.8 µM (inactive) and the GI50 (M14) was 8.3 µM (inactive). For the same compound, the GI50 (T47D) was 5.12 µM (inactive), the GI50 (UACC-62) was 5.86 µM (inactive) and the GI50 (SF-268) was 22.3 µM (inactive). For the same compound, the GI50 (DU-145) was 28.9 µM (inactive), the GI50 (HT-29) was 6.56 µM (inactive) and the GI50 (CAKI-1) was 33.6 µM (inactive). The GI50 (Hs-578T) was 10.1 µM (inactive), the GI50 (KM12) was 8.02 µM (inactive) and the GI50 (NCI/ADR-RES) was 45.5 µM (inactive). The GI50 (UO-31) was 26.1 µM (inactive), the GI50 (MCF7) was 26.9 µM (inactive) and the GI50 (SK-MEL-5) was 2.77 µM (inactive). The GI50 (HCT-116) was 5.48 µM (inactive).

`CCc1cc2c(cc1C(=O)CCC(=O)O)CC1(C2)Cc2cc(CC)c(C(=O)CCC(=O)O)cc2C1` was tested, and the GI50 (MDA-N) was > 100 µM (inactive), the GI50 (786-0) was > 100 µM (inactive) and the GI50 (HOP-92) was > 100 µM (inactive). The GI50 (RXF 393) was > 100 µM (inactive), the GI50 (Malme-3M) was 38.5 µM (inactive) and the GI50 (M14) was > 100 µM (inactive). For the same compound, the GI50 (T47D) was > 100 µM (inactive), the GI50 (SF-268) was 82.4 µM (inactive) and the GI50 (DU-145) was > 100 µM (inactive). The GI50 (NCI-H226) was > 100 µM (inactive), the GI50 (HT-29) was > 100 µM (inactive) and the GI50 (CAKI-1) was > 100 µM (inactive). The GI50 (Hs-578T) was > 100 µM (inactive), the GI50 (KM12) was > 100 µM (inactive) and the GI50 (NCI/ADR-RES) was > 100 µM (inactive). For the same compound, the GI50 (UO-31) was > 100 µM (inactive), the GI50 (MCF7) was > 100 µM (inactive) and the GI50 (SK-MEL-5) was > 100 µM (inactive). For the same compound, the GI50 (HCT-116) was > 100 µM (inactive).

In the case of `COc1ccc2nc3cccc([N+](=O)[O-])c3c(NCCN(C)C)c2c1`, the GI50 (MDA-N) was 0.124 µM (active), the GI50 (786-0) was 0.0902 µM (active) and the GI50 (HOP-92) was 0.057 µM (active). For the same compound, the GI50 (RXF 393) was 0.0851 µM (active), the GI50 (Malme-3M) was 0.0877 µM (active) and the GI50 (M14) was 0.0927 µM (active). The GI50 (T47D) was 0.146 µM (active), the GI50 (SF-268) was 0.145 µM (active) and the GI50 (DU-145) was 0.0223 µM (active). The GI50 (NCI-H226) was 0.207 µM (active), the GI50 (HT-29) was 0.0573 µM (active) and the GI50 (CAKI-1) was 0.18 µM (active). For the same compound, the GI50 (Hs-578T) was 0.242 µM (active), the GI50 (KM12) was 0.158 µM (active) and the GI50 (NCI/ADR-RES) was 0.138 µM (active). For the same compound, the GI50 (UO-31) was 0.176 µM (active), the GI50 (MCF7) was 0.0555 µM (active) and the GI50 (SK-MEL-5) was 0.102 µM (active). For the same compound, the GI50 (HCT-116) was 0.0251 µM (active).

With `COC(=O)[C@H](Cc1ccc(O)c(Br)c1)NC(=O)[C@H](Cc1ccc(O)cc1)NC(=O)OC(C)(C)C` (Boc-Tyr-[Tyr(3-Br)]-OMe) the GI50 (MDA-N) was > 100 µM (inactive), the GI50 (786-0) was 41.3 µM (inactive) and the GI50 (HOP-92) was 28.6 µM (inactive). The GI50 (Malme-3M) was 24.5 µM (inactive), the GI50 (M14) was 33.1 µM (inactive) and the GI50 (T47D) was 20.8 µM (inactive). For the same compound, the GI50 (SF-268) was 48.3 µM (inactive), the GI50 (DU-145) was 61.9 µM (inactive) and the GI50 (NCI-H226) was > 100 µM (inactive). For the same compound, the GI50 (HT-29) was 37.7 µM (inactive), the GI50 (CAKI-1) was > 100 µM (inactive) and the GI50 (Hs-578T) was > 100 µM (inactive). For the same compound, the GI50 (KM12) was 40.6 µM (inactive), the GI50 (NCI/ADR-RES) was > 100 µM (inactive) and the GI50 (UO-31) was 29 µM (inactive). For the same compound, the GI50 (MCF7) was 31.3 µM (inactive) and the GI50 (HCT-116) was 45.6 µM (inactive).
